Reference: patent US12171787B2, “Methods and compositions for modulating angiogenesis and vasculogenesis” (SanBio, Inc., priority 2012, dated 2024)

Experiments:
HUVECs = assay: HUVEC tube formation assay; format: cell-based, human
Text: A HUVEC tube formation assay was used to test the ability of MSCs and SB623 cells to elaborate factors that stimulate vessel formation. See, for example, E J Smith & C A Staton, “Tubule formation assays,” in Angiogenesis Assays—A Critical Appraisal of Current Techniques, (Staton, Lewis & Bicknell, eds.). John Wiley & Sons, Ltd., West Sussex, UK, pp. 65-87, 2006; and Goodwin (2007) Microvasc. Res. 74:172-183.
HUVECs were passed five times in EBM-2/ECGS medium, then transferred to alpha-MEM/0.5% FBS/2 mM glutamine/pen-strep, at a density of 1×10^5 cells/ml. After 24 hours, HUVECs were harvested using 0.25% trypsin-EDTA, rinsed, and resuspended in α-MEM/2 mM glutamine/pen-strep at a density of 1×10^5 cells/ml. A mixture of 75 ul of HUVECs plus 75 ul of either MSC- or SB623-conditioned medium (Example 1), or 75 ul OptiMEM medium as a negative control, was added to each well of a 96-well plate that had been pre-treated by adding 50 ul of Reduced Growth Factor (RGF)-basement gel (Invitrogen, Carslsbad, CA) per well and incubating the plates at 37° C. for 45 minutes. For this assay, MSCs were obtained from 3 different human donors, and a portion of the MSCs from each donor were converted to SB623 cells.
After 16 hours, the cultures were examined by phase contrast microscopy and photographed. The number of complete tubes (formed by contiguous cells) was quantified by an experimenter blinded to the group. […] Thus, MSCs and SB623 cells secrete factors that promote vasculogenesis.
HUVEC tube formation assays with conditioned medium from MSCs and SB623 cells were conducted as described in Example 4, in the presence and absence of the VEGF2 receptor inhibitor SU5416.
Quantitation of tube formation was conducted, as described in Example 4, for HUVECs exposed to SB623 cell conditioned medium in the presence and absence of SU5416, at 16 and 40 hours after plating.

[1] = test system: human umbilical vein endothelial cells (HUVECs); assay: HUVEC proliferation: fraction of Ki67-expressing cells by flow cytometry; format: cell-based; conditions: 50 nM SU5416 + SB623 cell conditioned medium, five days
Procedure: Ki67 is a protein present in cells exiting from the GO (quiescent) phase of the cell cycle; therefore Ki67 levels can be used as a measure of cell proliferation. The fraction of cells expressing Ki67 protein was measured in HUVECs that had been starved for serum and growth factors, then cultured with conditioned medium from either MSCs or SB623 cells.
For Ki67 measurement, HUVECs were cultured and exposed to CM as described in Example 2. Cells were fixed in 4% paraformaldehyde and permeabilized with 0.1% Triton-X100 for one hour. Following permeabilization, cells were stained for one hour on ice with fluorescein-conjugated anti-KI67 antibody, then samples were washed, acquired, and analyzed on the FL-1 channel of a BD FACSCalibur. Cells exposed to fluorescein-conjugated IgG were used as a negative control. For these assays, 3 different human donor pairs were tested.
The effect of the VEGF receptor inhibitor on stimulation of HUVEC proliferation by SB623 cell factors was also assessed. Assays for expression of Ki67 were conducted as described in Example 3, except that 50 nM SU5416 was added to cultures 30 minutes before addition of conditioned medium, and cells were cultured for five days, instead of seven, before assay.

[2] = test system: human umbilical vein endothelial cells (HUVECs); assay: HUVEC survival: propidium iodide staining of serum/growth factor-starved HUVECs; format: cell-based; conditions: 50 nM SU5416 + SB623 cell-conditioned medium, five days, vs SB623 CM alone
Procedure: (§1) Cerebral ischemia can result in loss of nutrient supply to the affected area. To determine if soluble factors from SB623 cells and MSCs have restorative effects on nutrient-deprived endothelial cells, human umbilical vein endothelial cells (HUVECs) were cultured in medium depleted of serum and growth factors for 24 hours, then exposed to conditioned medium (CM) from MSCs or SB623 cells. Control cultures remained in serum- and growth factor-depleted medium without addition of CM. Viability and proliferative capacity of the HUVECs were then assessed.
(§2) For these experiments, human umbilical vein endothelial cells were passed twice, then 7.5×10^5 cells were plated in EBM-2/ECGS medium (Endothelial Basal Medium-2/Endothelial Cell Growth Supplements; Lonza, Walkersville, MD) on T-75 flasks coated with 0.1% gelatin and cultured for 24 hours. The HUVEC monolayers were rinsed twice with warm PBS and incubated with 12 ml of fresh EBM-2 medium overnight at 37° C., 5% CO2. Effects of CM were then assessed by withdrawing 6 ml of medium from each flask, and replacing it with 6 ml fresh OptiMEM (control), 6 ml MSC conditioned medium, or 6 ml SB623 cell conditioned medium (conditioned media prepared as described in Example 1). […]
To quantify cell death, cells were stained with propidium iodide (PI), since dead cells are permeable to PI. […]

[3] = test system: human umbilical vein endothelial cells (HUVECs); assay: HUVEC survival: fraction of Bcl-2-expressing cells by flow cytometry; format: cell-based; conditions: 50 nM SU5416 + SB623 cell-conditioned medium, five days, vs SB623 CM alone
Procedure: as §1
as §2, with “The HUVEC monolayers were rinsed twice with warm PBS and incubated with 12 ml of fresh EBM-2 medium overnight at 37° C., 5% CO2.” left out
Bcl-2 is an anti-apoptotic protein originally identified as being overexpressed in certain B-cell lymphomas. Accordingly, the fraction of cells expressing the Bcl-2 protein was measured in serum/growth factor-starved HUVECs as an indicator of their apoptotic potential. […]

aortic rings = assay: Aortic ring assay (vessel outgrowth and branching); format: cell-based, Sprague-Dawley rats; conditions: 50 nM SU5416, rat aortic rings, 10 days
Text: Restoration of vasculature after ischemic injury requires that surviving endothelial cells receive signals that prompt their migration and invasion. Such signals may arise from vascular smooth muscle cells, monocytes, and/or macrophages, among others. To test for secretion of factors involved in vessel sprouting and branching, the aortic ring assay was used. See, for example, Nicosia & Ottinetti (1990) Lab. Invest. 63:115-122 and Nicosia (2009) J. Cell. Mol. Med. 13:4113-4136.
For preparation of aortic rings, adult Sprague-Dawley rats were euthanized prior to dissection. After clamping off its two ends, the aorta was removed and placed in ice-cold α-MEM/pen-strep medium prior to removal of the external adipose layer. Adipose-free aorta was rinsed twice with ice-cold EBM-2/pen-strep medium before being sectioned into rings of 1.0 mm thickness. […]
To assess the angiogenic activity of MSC- and SB623-derived factors, phase contrast photographs were taken on Day 10, and results were quantified by an experimenter blinded to the group, by counting vessel outgrowth and branching. Growth of new vessels was quantitated by measuring the number of vessels growing out from the ring; and vessel branching was quantitated by measuring the number of branchpoints present in vessels growing out from the aortic ring. […]

| Molecule | effect on positive effect of SB623 CM on tube formation (quantitation) (HUVECs; 50 nM SU5416, 16 and 40 hours after plating) | effect on stimulation of tube formation by VEGF, MSC-CM and SB623-CM (HUVECs; 50 nM SU5416, 16 hours) | effect on enhancement of HUVEC proliferation (Ki67) by SB623 conditioned medium [1] | propidium iodide uptake by HUVECs in SB623 conditioned medium plus inhibitor [2] | Bcl-2 expression by HUVECs in SB623 conditioned medium plus inhibitor [3] | vessel outgrowth and branching in SB623 cell-conditioned medium plus inhibitor (aortic rings) | tube formation by HUVECs (positive control) (HUVECs; 10 ng/ml VEGF, 16 hours) |
| --- | --- | --- | --- | --- | --- | --- | --- |
| Cc1cc(C)c(/C=C2\C(=O)Nc3ccccc32)[nH]1 [SU5416] | completely reversed | reduces the stimulation of tube formation | partially reversed | more cells take up PI | fewer cells express | reduced |  |
| VEGF |  |  |  |  |  |  | promote tube formation |
